Experimental data: patent US4226883A, “Carbamate derivatives and method for manufacture thereof” (priority 1974, dated 1980)

System: green rice leafhoppers of the strain RN
Test: Test Example 3: dust spray test (20 mesh metal gauze cylinder)
Type: in vivo, Nephotettix cincticeps
Conditions: for Effect of individual compound (RN), death ratio (%) (Table 9): dust, compound alone, RN strain; for death ratio (%), mixture with Compound No. 1 / death ratio (%), mixture with Compound No. 6* / death ratio (%), mixture with Compound No. 24* / death ratio (%), mixture with Compound No. 35* / death ratio (%), mixture with Compound No. 40* / death ratio (%), mixture with Compound No. 49* / death ratio (%), mixture with Compound No. 81* / death ratio (%), mixture with Compound No. 118* / death ratio (%), mixture with Carbofuran / death ratio (%), mixture with Methomyl: Table 9, RN; for death ratio (%), mixture with Compound No. 1: dust mixed with 1; for death ratio (%), mixture with Compound No. 6*: dust mixed with 6*; for death ratio (%), mixture with Compound No. 24*: dust mixed with 24*; for death ratio (%), mixture with Compound No. 35*: dust mixed with 35*; for death ratio (%), mixture with Compound No. 40*: dust mixed with 40*; for death ratio (%), mixture with Compound No. 49*: dust mixed with 49*; for death ratio (%), mixture with Compound No. 81*: dust mixed with 81*; for death ratio (%), mixture with Compound No. 118*: dust mixed with 118*; for death ratio (%), mixture with Carbofuran: dust mixed with Carbofuran; for death ratio (%), mixture with Methomyl: dust mixed with Methomyl
Description: The insecticides in the form of dust were tested for insecticidal activity.
The test for insecticidal activity was performed by the following procedure. […] The dust of a test compound (pulverized by means of a shaking pulverizer made by Taira Kosakusho, Ltd.) was applied onto the tube contents at a prescribed rate by spraying from outside the metal gauze by means of a bell-jar duster. The dust of the test compound was prepared uniformly mixing 2 parts of the dust of the individual compound or 1 part each of the dusts of the mixture components (total 2 parts) and 98 parts of a carrier obtained by mixing talc and clay in equal volumes.

SMILES	Effect of individual compound (RN), death ratio (%) (Table 9)	death ratio (%), mixture with Compound No. 1	death ratio (%), mixture with Compound No. 6*	death ratio (%), mixture with Compound No. 24*	death ratio (%), mixture with Compound No. 35*	death ratio (%), mixture with Compound No. 40*	death ratio (%), mixture with Compound No. 49*	death ratio (%), mixture with Compound No. 81*	death ratio (%), mixture with Compound No. 118*	death ratio (%), mixture with Carbofuran	death ratio (%), mixture with Methomyl
CNC(=O)Oc1cccc2c1OC(C)(C)C2 [Carbofuran, 2,3dihydro-2,2-dimethyl-benzofuran-7-yl-N-methylcarbamate, reference compound]	40.0%										
CCCNC(=O)Oc1ccccc1OC [Compound 77, 2-methoxyphenyl-N-n-propylcarbamate]	45.0%	95.0%	100%	100%	100%	95.0%	50.0%	80.0%	100%	100%	100%
CCCNC(=O)Oc1ccccc1OCC [Compound 80, 2-ethoxyphenyl-N-n-propylcarbamate]	0%	65.0%	60.0%	57.5%	65.0%	55.0%	15.0%	60.0%	70.0%	85.0%	75.0%
CCNC(=O)Oc1ccccc1OC(C)C [Compound 82, 2-isopropoxyphenyl-N-ethylcarbamate]	15.0%	25.0%	50.0%	45.0%	60.0%	45.0%	15.0%	55.0%	80.0%	80.0%	85.0%
CCCCNC(=O)Oc1ccccc1OC(C)C [Compound 84]	0%	0%	15.0%	5.0%	10.0%	5.0%	0%	100%	67.5%	55.0%	70.0%
C=CCNC(=O)Oc1ccccc1OC(C)C [Compound 85, 2-isopropoxyphenyl-N-allylcarbamate]	25.0%	50.0%	45.0%	35.0%	75.0%	60.0%	0%	80.0%	35.0%	85.0%	90.0%
CCCNC(=O)Oc1cccc(OCC)c1 [Compound 94, 3-ethoxyphenyl-N-n-propylcarbamate]	0%	80.0%	85.0%	95.0%	95.0%	85.0%	35.0%	95.0%	95.0%	90.0%	100%
CNC(=O)Oc1cc(C)c(N(C)C)c(C)c1 [Compound 118, 4-dimethylamino-3,5-dimethylphenyl-N-methylcarbamate, reference compound]	23.4%										
